system: bovine cardiac myofibrils; test: Myofibril assay: PK/LDH-coupled steady-state ATPase activity of skinned bovine cardiac myofibrils; type: biochemical; settings: Ca2+ activating to 75% of maximal rate
Protocol: To evaluate the effect of compounds on the ATPase activity of full-length cardiac myosin in the context of the native sarcomere, skinned myofibril assays were performed. Bovine cardiac myofibrils were obtained by homogenizing bovine cardiac left ventricular tissue in the presence of a detergent such as triton X-100. Such treatment removes membranes and a majority of the soluble cytoplasmic proteins but leaves intact the cardiac sarcomeric acto-myosin apparatus. Myofibril preparations retain the ability to hydrolyze ATP in a Ca^2+ regulated manner. ATPase activities of such myofibril preparations in the presence and absence of compounds were assayed at Ca^2+ concentrations activating to a defined fraction of the maximal rate (i.e., […], 75%). Small molecule agents were assessed for their ability to inhibit the steady-state ATPase activity of bovine cardiac myofibrils using pyruvate kinase and lactate dehydrogenase (PK/LDH)-coupled enzyme system. This assay regenerates myosin-produced ADP into ATP by oxidizing NADH, producing an absorbance change at 340 nm. Prior to testing small molecule agents, the bovine cardiac myofibrils were assessed for their calcium responsiveness and the calcium concentration that achieves either a 50% (pCa50) or 75% (pCa75) activation of the myofibril system was chosen as the final condition for assessing the inhibitory activity of the small molecule agents. All enzymatic activity was measured in a buffered solution containing 12 mM PIPES (piperazine-N,N′-bis(2-ethanesulfonic acid), 2 mM magnesium chloride at pH 6.8 (PM 12 buffer). Final assay conditions were 1 mg/mL of bovine cardiac myofibrils, 4 U/mL pyruvate kinase, 6 U/mL lactate dehydrogenase, 50 μM ATP, 0.1 mg/mL BSA (bovine serum albumin), 10 ppm antifoam, 1 mM DTT, 0.5 mM NADH, 1.5 mM PEP, 0.6 mM EGTA, and an amount of CaCl2 sufficient to achieve either 50% or 75% activation of the myofibril ATPase activity. Results for compounds tested are provided in Table A. Compounds tested were prepared in accordance with the synthetic procedures described herein.

SMILES	CDMF75 IC15 [µM]
CC(C)N1CC(=O)N(Cc2ccc(Cl)c(Cl)c2)C2(CCN(c3ccc(C#N)cn3)C2)C1=O (centres unmarked) [Compound 90, 6-(6-(3,4-dichlorobenzyl)-9-isopropyl-7,10-dioxo-2,6,9-triazaspiro[4.5]-decan-2-yl)nicotinonitrile]	1.7
CC(C)N1CC(=O)N(Cc2ccc(C(F)(F)F)cc2)C2(CN(C=O)C2)C1=O [Compound 69, 8-isopropyl-6,9-dioxo-5-(4-(trifluoromethyl)benzyl)-2,5,8-triazaspiro[3.5]-nonane-2-carbaldehyde]	15.4
CC(C)N1CC(=O)N(Cc2ccc(Cl)cc2)C2(CN(c3ccnc(C(N)=O)c3)C2)C1=O [Compound 37, 4-(5-(4-chlorobenzyl)-8-isopropyl-6,9-dioxo-2,5,8-triazaspiro[3.5]nonan-2-yl)picolinamide]	6.0
CNC(=O)N1CC2(C1)C(=O)N(C(C)C)CC(=O)N2C(C)c1ccc(C(F)(F)F)cc1 (centres unmarked) [Compound 139, 8-isopropyl-N-methyl-6,9-dioxo-5-(1-(4-(trifluoromethyl)phenyl)-ethyl)-2,5,8-triazaspiro-[3.5]nonane-2-carboxamide]	14.8
Cc1cc(N2CCC3(C2)C(=O)N(C(C)C)CC(=O)N3Cc2ccc(C(F)(F)F)cc2)ccn1 (centres unmarked) [Compound 72, 9-isopropyl-2-(2-methylpyridin-4-yl)-6-(4-(trifluoromethyl)benzyl)-2,6,9-triazaspiro[4.5]-decane-7,10-dione]	9.0
CC(C)C(=O)N1CC2(C1)C(=O)N(c1ccc(C#N)cc1F)CC(=O)N2Cc1ccc(C(F)(F)F)cc1 [Compound 174, 3-fluoro-4-(2-isobutyryl-6,9-dioxo-5-(4-(trifluoromethyl)benzyl)-2,5,8-triazaspiro[3.5]nonan-8-yl)benzonitrile]	8.0
CNC(=O)N1CC2(C1)C(=O)N(C(C)C)CC(=O)N2Cc1ccc(Cl)cc1 [Compound 65, 5-(4-chlorobenzyl)-8-isopropyl-N-methyl-6,9-dioxo-2,5,8-triazaspiro[3.5]nonane-2-carboxamide]	9.8
Cc1ncccc1N1CC2(C1)C(=O)N(C(C)C)CC(=O)N2Cc1ccc(Cl)cc1 [Compound 13, 5-(4-chlorobenzyl)-8-isopropyl-2-(2-methyl-pyridin-3-yl)-2,5,8-triazaspiro[3.5]nonane-6,9-dione]	7.1
CC(C)N1CC(=O)N(Cc2ccc(C(F)(F)F)cc2)C2(CCN(C(=O)NC3CCC3)C2)C1=O (centres unmarked) [Compound 1, N-cyclobutyl-9-isopropyl-7,10-dioxo-6-(4-(trifluoromethyl)benzyl)-2,6,9-triazaspiro[4.5]-decane-2-carboxamide]	9.5
Cc1cc(N2CC3(C2)C(=O)N(C(C)C)CC(=O)N3Cc2ccc(C(F)(F)F)cc2)ccn1 [Compound 31, 8-isopropyl-2-(2-methylpyridin-4-yl)-5-(4-(trifluoromethyl)benzyl)-2,5,8-triazaspiro[3.5]-nonane-6,9-dione]	2.7
CNC(=O)N1CC2(C1)C(=O)N(c1ccc(C(=O)OC)cc1)CC(=O)N2Cc1ccc(C(F)(F)F)cc1 [Compound 148, methyl 4-(2-(methylcarbamoyl)-6,9-dioxo-5-(4-(trifluoro-methyl)benzyl)-2,5,8-triazaspiro[3.5]nonan-8-yl)benzoate]	2.3
CC(C)N1CC(=O)N(Cc2ccc(C(F)(F)F)cc2)C2(CCN(C(=O)Nc3cccnc3)C2)C1=O (centres unmarked) [Compound 113, 9-isopropyl-7,10-dioxo-N-(pyridin-3-yl)-6-(4-(trifluoromethyl)benzyl)-2,6,9-triazaspiro[4.5]-decane-2-carboxamide]	18.5

Results, then the compound that gave them:

CDMF75 IC15 [µM]	SMILES
7.0	CC(C)N1CC(=O)N(Cc2cccc(F)c2)C(c2ccc(Cl)cc2)C1=O (centres unmarked) [Compound 299, 3-(4-chlorophenyl)-4-(3-fluorobenzyl)-1-isopropylpiperazine-2,5-dione]
32.7	O=C1CN(c2ccc(Cl)cc2F)C(=O)CN1Cc1ccc(C(F)(F)F)cc1 [Compound 277, 1-(4-chloro-2-fluorophenyl)-4-(4-(trifluoromethyl)-benzyl)piperazine-2,5-dione]
8.6	CCNC(=O)N1CC2(C1)C(=O)N(c1ncc(Cl)cc1F)CC(=O)N2[C@@H](C)c1ccc(Cl)cc1 [Compound 560, (S)-8-(5-chloro-3-fluoro-pyridin-2-yl)-5-(1-(4-chlorophenyl)ethyl)-N-ethyl-6,9-dioxo-2,5,8-triazaspiro[3.5]nonane-2-carboxamide]
0.5	Cc1cc(Cl)cnc1N1CC(=O)N(Cc2ccc(F)cc2)C2(CN(c3ccc(F)cn3)C2)C1=O [Compound 885, 8-(5-chloro-3-methyl-pyridin-2-yl)-5-(4-fluoro-benzyl)-2-(5-fluoropyridin-2-yl)-2,5,8-triazaspiro-[3.5]nonane-6,9-dione]
2.6	C[C@@H](c1ccc(Cl)cc1)N1C(=O)CN(c2ncc(Cl)cc2F)C(=O)C12CN(C(=O)OCC(F)F)C2 [Compound 569, 2,2-difluoroethyl (S)-8-(5-chloro-3-fluoropyridin-2-yl)-5-(1-(4-chlorophenyl)-ethyl)-6,9-dioxo-2,5,8-triazaspiro[3.5]nonane-2-carboxylate]
0.8	O=C1CN(c2ncc(Cl)cc2F)C(=O)C2(CC2)N1Cc1ccc(C(F)(F)F)cc1 [Compound 550, 7-(5-chloro-3-fluoropyridin-2-yl)-4-(4-(trifluoromethyl)benzyl)-4,7-diazaspiro[2.5]octane-5,8-dione]
0.9	N#Cc1ccc(N2CC(=O)N(Cc3ccc(C(F)(F)F)cc3)[C@]3(CCN(C(=O)C4CCC4)C3)C2=O)c(F)c1 [Compound 217, (S)-4-(2-(cyclobutane-carbonyl)-7,10-dioxo-6-(4-(trifluoromethyl)benzyl)-2,6,9-triazaspiro[4.5]decan-9-yl)-3-fluorobenzonitrile]
1.2	C[C@@H](c1ccc(Cl)cc1)N1C(=O)CN(c2ncc(Cl)cc2F)C(=O)C12CN(C=O)C2 [Compound 568, (S)-8-(5-chloro-3-fluoro-pyridin-2-yl)-5-(1-(4-chlorophenyl)ethyl)-6,9-dioxo-2,5,8-triazaspiro-[3.5]nonane-2-carbaldehyde]
17.3	CC(=O)NCC1(C)C(=O)N(c2ncc(Cl)cc2F)CC(=O)N1Cc1ccc(Cl)cc1 (centres unmarked) [Compound 631, N-((4-(5-chloro-3-fluoro-pyridin-2-yl)-1-(4-chloro-benzyl)-2-methyl-3,6-dioxopiperazin-2-yl)-methyl)acetamide]
0.7	O=C1CN(c2ccc(Cl)cc2F)C(=O)[C@]2(C[C@@H](O)C2)N1Cc1ccc(C(F)(F)F)cc1 (single isomer, unassigned) [Compound 483B]
0.7	O=C1CN(c2ncc(Cl)cc2F)C(=O)C2(CC3(COC3)C2)N1Cc1ccc(F)cc1 [Compound 815, 10-(5-chloro-3-fluoro-pyridin-2-yl)-7-(4-Fluorobenzyl)-2-oxa-7,10-diazadispiro-[3.1.56.14]dodecane-8,11-dione]
2.9	CC(=O)N1CC2(C1)C(=O)N(c1ncc(Cl)cc1F)CC(=O)N2Cc1ccc(C(F)(F)F)cc1 [Compound 528, 2-acetyl-8-(5-chloro-3-fluoropyridin-2-yl)-5-(4-(trifluoromethyl)benzyl)-2,5,8-triazaspiro[3.5]nonane-6,9-dione]
4.5	N#Cc1ccc(N2CC(=O)N(Cc3ccc(C(F)(F)F)cc3)[C@]3(C[C@H](C(=O)NC4CC4)C3)C2=O)c(F)c1 [Compound 459, (2r,4r)-8-(4-cyano-2-fluoro-phenyl)-N-cyclopropyl-6,9-dioxo-5-(4-(trifluoromethyl)benzyl)-5,8-diazaspiro[3.5]nonane-2-carboxamide]
0.8	N#Cc1ccc(N2CC(=O)N(Cc3ccc(Cl)cc3)[C@]3(CCN(C=O)C3)C2=O)c(F)c1 [Compound 220, (S)-4-(6-(4-chlorobenzyl)-2-formyl-7,10-dioxo-2,6,9-triazaspiro[4.5]decan-9-yl)-3-fluorobenzonitrile]
11.8	Cc1ccc(CN2C(=O)CN(c3ncc(Cl)cc3C)C(=O)C2C2COC2)cc1 (centres unmarked) [Compound 733, 1-(5-chloro-3-methyl-pyridin-2-yl)-4-(4-methyl-benzyl)-3-(oxetan-3-yl)-piperazine-2,5-dione]
1.26	CC(=O)N1CC2(C1)CC1(C2)C(=O)N(c2ncc(Cl)cc2F)CC(=O)N1Cc1ccc(C(F)F)cc1 [Compound 826, 2-acetyl-10-(5-chloro-3-fluoropyridin-2-yl)-7-(4-(difluoromethyl)benzyl)-2,7,10-triazadispiro-[3.1.56.14]dodecane-8,11-dione]
16.4	CC(=O)N1CC(CC2C(=O)N(c3ncc(Cl)cc3F)CC(=O)N2Cc2ccc(Cl)cc2)C1 (stereo not drawn) [Compound 662, 3-((1-acetylazetidin-3-yl)methyl)-l-(5-chloro-3-fluoropyridin-2-yl)-4-(4-chlorobenzyl)piperazine-2,5-dione]

— patent publication US11414424B2, “Cardiac sarcomere inhibitors” (Cytokinetics, Inc., priority 2018, dated 2022)
